Results published in article PMC10661964 (Current Drug Metabolism, 2023).

Experiments:
[1] = Experimental: One aliquot of a pooled urine sample taken at 0.25 h post-dose was analyzed immediately using HPLC-LSC. Further aliquots were analyzed after storage for 24 h at room temperature. […] After incubation for 22.5 h at 37°C with shaking, incubations were terminated by the addition of acetonitrile, then extracted (three times with 2 mL acetonitrile for 30 min) and centrifuged (1726 g, 3 min). The combined supernatant was analyzed directly using HPLC-LSC.
[2] = rats, assuming oral bioavailability of 90% and fu 62.1%
[3] = cited from earlier work
[4] = humans, dogs, and rats, oral administration; cited from earlier work
[5] = Stability study: metabolite profiles in snap-frozen plasma and urine at early timepoints after oral [14C]-nifurtimox; format: in vivo, male Wistar rats; conditions: for share of sample radioactivity in plasma / share of sample radioactivity in urine: oral 2.5 mg/kg, snap-frozen
Experimental: Animals were housed in suitable metabolism cages. […] Blood cells and plasma were separated by centrifugation. Plasma was stored at ≤-15°C prior to analysis. […] All biological samples were weighed immediately. […] The remaining carcass was also wet-weighed.
The combined supernatant was analyzed directly using HPLC-LSC.

[6] = within 2-3 days of oral or i.v. dosing in rats and dogs; cited from earlier work
in vitro = conditions: rat, plasma
[7] = human, estimation accounting for GFR, fu (57.6%), and AUC
[8] = rat, in vivo, 2.5 mg/kg
Experimental: After an adaption period, the animals were prepared for the study. Bile duct cannulation was performed on selected animals the day before their use in experiments.
In a mass balance study (n = 5) and a PK study (n = 2 per timepoint), 2.5 mg/kg b.w. […] For i.v. administration, 2.5 mg/kg b.w. […] In an additional stability study, male Wistar rats (n = 3 per timepoint) were administered 2.5 mg/kg b.w. […] The total radioactivity concentration in the dosage form was confirmed by liquid scintillation counting (LSC).
Animals were housed in suitable metabolism cages. Blood was collected from separate rats at 0.25, 0.5, 1, 1.5, 2, 3, 5, and 8 h post-dose and stored in lithium heparinized tubes. Blood cells and plasma were separated by centrifugation. Plasma was stored at ≤-15°C prior to analysis. […] At the end of the study, the cages were rinsed with water, and samples were collected. All biological samples were weighed immediately. Feces samples were homogenized with water to obtain a uniform radioactivity distribution. All samples were stored deep-frozen at ≤-15/-70°C before further processing. During the necropsy, selected organs and tissues were collected and wet-weighed. The remaining carcass was also wet-weighed. The carcass and all tissues were homogenized and stored at room temperature prior to processing for analysis. In the stability study, blood and urine were collected at 0.25 and 0.5 h post-dose. Plasma and urine were immediately frozen in liquid nitrogen and stored at -80°C to prevent degradation. The total radioactivity in samples and tissues was determined by LSC after appropriate sample preparation.
Aliquots of individual urine or bile samples were pooled separately for each time interval by equal volume and analyzed using HPLC-LSC. Aliquots of individual feces samples were pooled separately for each time interval, ensuring that each aliquot contained the same amount of radioactivity. The pooled samples were extracted twice with a mixture of acetonitrile/water (80:20 v/v, 2 x 0.5 mL). The resulting suspensions were centrifuged (20,000 g, 5 min), and the supernatants were then combined for each time interval, concentrated, and subjected to HPLC-LSC.
The amount of total radioactivity in urine, feces, bile, and tissues was determined by multiplying the volume or weight of the samples by the respective total radioactivity concentration. The amount of radioactivity recovered in the excreta (AE), cage wash, and tissues was compared with the administered radioactive dose to establish the radioactive balance. Cumulative excretion was calculated as the sum of the excretion for each collection interval. Arithmetic means and coefficients of variation (CV) were calculated for these percentages. During metabolite profiling, the concentration or amount of each analyte for each sample and timepoint or interval was calculated by multiplying the total radioactivity concentration or amount excreted of each sample with the percent area of each analyte obtained after HPLC-LSC separation.

[9] = oral, Medenwald et al. and seven healthy volunteers

CC1CS(=O)(=O)CCN1/N=C/c1ccc([N+](=O)[O-])o1 (stereo not drawn) [Nifurtimox, (E)-N-(3-methyl-1,1-dioxo-1,4-thiazinan-4-yl)-1-(5-nitrofuran-2-yl) methanimine, reference compound]
stability in aqueous control without feces ([1]; 8.8 µM, 37°C, 22.5 h, anaerobic, data not shown): no degradation
stability in rat feces ([1]; 8.8 µM, aqueous suspension of fresh rat feces, 37°C, 22.5 h, anaerobic): unstable in rat feces
stability in rat urine ([1]; pooled 0.25 h post-dose urine reanalyzed after storage at room temperature for 24 h): undetectable
theoretical excretion based on glomerular filtration rate [2]: 23 % of the dose
tmax, patients who had eaten before dosing ([3]; Phase 1 food-effect PK study): 4 h
Tmax [3, 9]: 2 to 3 h
average elimination half-life (t½) [3, 9]: approximately 3 hours
AUC greater in fed compared to fasting patients ([3]; same nifurtimox dose, Phase 1 food-effect study): 70%
unlabeled nifurtimox excreted in urine [4]: no more than 0.5 % of the administered dose
share of sample radioactivity in plasma ([5]; 0.25 h post-dose): 81.5 % of sample radioactivity
share of sample radioactivity in urine ([5]; 0.25 h post-dose): 11 % of sample radioactivity
share of sample radioactivity in plasma ([5]; 0.5 h post-dose): 72.5 % of sample radioactivity
share of sample radioactivity in urine ([5]; 0.5 h post-dose): 4 % of sample radioactivity
stability in plasma ([5]; authors' conclusion from plasma profiles): appears to be stable in plasma
administered radioactivity detected in urine [6]: 40-50%
fraction unbound (in vitro): 0.621
dose expected to be excreted unchanged in urine [7]: approximately 10%
component excreted in feces, oral dosing [8]: No unchanged drug was detected
